In PubChem BioAssay (NCI):
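1) Cells in 96-well plates. 2) Compound, 48 h, 5 concentrations. 3) Linear interpolation between surrounding doses. 4) Unreached endpoint = highest concentration. At the GI50, growth is halved. TGI marks complete inhibition of growth.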

How the values were obtained:
Test in all cases: NCI anticancer screen, dose series, 48 h
[1] = system: LOX IMVI melanoma
[2] = system: MCF7 breast
[3] = system: COLO 205 colon
[4] = system: SF-539 CNS
[5] = system: HCT-116 colon
[6] = system: MDA-MB-231 breast
[7] = system: SK-MEL-5 melanoma
[8] = system: UACC-62 melanoma
[9] = system: HS 578T breast
[10] = system: SNB-19 CNS

| Compound | GI50 [1] [µM] | TGI [1] [µM] | GI50 [2] [µM] | TGI [2] [µM] | GI50 [3] [µM] | TGI [3] [µM] | GI50 [4] [µM] | TGI [4] [µM] | GI50 [5] [µM] | TGI [5] [µM] | GI50 [6] [µM] | TGI [6] [µM] | GI50 [7] [µM] | TGI [7] [µM] | GI50 [8] [µM] | TGI [8] [µM] | GI50 [9] [µM] | TGI [9] [µM] | GI50 [10] [µM] | TGI [10] [µM] |
| --- | --- | --- | --- | --- | --- | --- | --- | --- | --- | --- | --- | --- | --- | --- | --- | --- | --- | --- | --- | --- |
| O=P(Oc1ccccc1)(Oc1ccccc1)C(O)c1ccccc1 (stereo unspecified) | > 100 | > 100 | > 100 | > 100 | 35 | > 100 | > 100 | > 100 | 65.9 | > 100 | 71.3 | > 100 | 53.1 | > 100 | 44.8 | > 100 | 45.9 | > 100 | > 100 | > 100 |
| Cc1cc(S(=O)(=O)Nc2nnc(-c3ccco3)c(-c3ccco3)n2)c(SCc2ccccc2)cc1Cl | 24.7 | 45.4 | 26.7 | 61.9 | 26.1 | 56.3 | 19.9 | 41.1 | 33.2 | > 100 | 24.8 | 47.6 | 17.5 | 32.5 | 19.4 | 37.2 | 29.7 | 64.9 | 21.7 | 43.8 |
| COc1ccc(/C=C/C(=O)/C=C(/C=C/c2ccc(OC)c(OC)c2)OB(F)F)cc1OC | 0.808 | 2.19 | 0.4 | > 100 | 0.37 | 1.57 | 1.18 | 3.63 | 0.321 | 1.09 | 0.621 | 4.08 | 1.49 | 3.23 | 0.574 | 2.16 | 1.31 | 8.15 | 1.63 | 5.73 |
| O=C(O)CSCC(=O)c1ccccc1 |  | > 100 |  | > 100 |  | > 100 |  | > 100 |  | > 100 |  | > 100 |  | > 100 |  | > 100 |  | > 100 |  | > 100 |
| Clc1ccc(Nc2ccnc(NCCNc3ccnc4cc(Cl)ccc34)n2)cc1 | 1.29 | 2.62 | 1.08 | 2.59 | 1.31 | 2.92 | 1.3 | 2.8 | 0.522 | 2.12 | 1.59 | 3.31 | 1.31 | 2.59 | 1.69 | 3.17 | 1.83 | 4.38 | 1.54 | 3.07 |
| O=c1oc2ccccc2c(Cl)c1Cl | 1.76 | 12.4 | 2.83 | 10.6 | 2.19 | 4.84 | 4.07 | 15.3 | 3.49 | 13.6 | 2.48 | 6.2 | 4.94 | 16.9 | 4.82 | 18.1 | 2.69 | 9.71 | 10.5 | 22.7 |
| O=C(O)C(Cc1ccccc1-c1ccccc1)C(=O)O |  | > 100 |  | > 100 |  | > 100 |  | > 100 |  | > 100 |  | > 100 |  | > 100 |  | > 100 |  | > 100 |  | > 100 |
| O=C(Nc1cccc(NS(=O)(=O)c2ccc(F)cc2)c1)c1ccc(-c2ccccc2)cc1 | 2.54 | 6.99 | 2.71 | 11.2 | 3.23 | 11.4 | 3.42 | 12.8 | 3.48 | 13.4 | 3.61 | 18 | 1.88 | 3.74 | 1.63 | 6.68 | 4.68 | 52.5 | 3.4 | > 100 |
| COc1cc(-c2cc(C(=O)Nc3nc4ccccc4s3)nc3cc(-c4ccccc4)nn23)cc(OC)c1OC | 5.57 | > 100 | 22.4 | > 100 |  |  | 1.31 | 9.09 | 4.51 | > 100 | 5.63 | 69.2 | 13.8 | > 100 | 14.4 | 80.4 | 4.7 | > 100 | 16.7 | 69.5 |
| O=C(O)C1CCCN1Cc1c[nH]c2ccccc12 (stereo unspecified) |  | > 100 |  | > 100 |  | > 100 |  | > 100 |  | > 100 |  | > 100 |  | > 100 |  | > 100 |  | > 100 |  | > 100 |
| O=C1CC2(CCCc3sccc32)C(=O)N1 (stereo unspecified) |  | > 100 |  | > 100 |  | > 100 |  | > 100 |  | > 100 |  | > 100 |  | > 100 |  | > 100 |  | > 100 |  | > 100 |
| COc1ccc(/C=C\c2cc(OC)c(OC)c(OC)c2)cc1NC(=O)[C@@H](N)CO | 0.0376 | > 100 | 0.0207 | > 100 | < 0.01 | 0.0153 | 0.0145 | 0.0649 | 0.0176 | > 100 | 0.0215 | > 100 | < 0.0112 | 0.0364 |  | > 100 | 0.0309 | > 100 | 0.0433 | > 100 |
| Nc1nc(SCC(=O)O)[nH]c(=O)c1N |  | 42.8 |  | > 100 |  | > 100 |  | > 100 |  | > 100 |  | > 100 |  | > 100 |  | > 100 |  | > 100 |  | > 100 |
| Cc1c(C(=O)N/N=C/c2ccc(O)cc2)nnn1-c1ccnc2c(C(F)(F)F)cccc12 | 46.8 | > 100 | 9.12 | > 100 | > 100 | > 100 | 42 | > 100 | 50.1 | > 100 | 12.7 | 48.4 | > 100 | > 100 | > 100 | > 100 | 44.6 | > 100 | 23.5 | 76.7 |
| C=C(CN1CCc2ccccc2C1)c1ccc(/C=C/C(=O)Nc2ccccc2N)cc1 | 3.09 | 16.5 | 2.37 | > 100 | 32.2 | > 100 | 13 | > 100 | 1.59 | 5.7 | 4.36 | 48.3 | 13 | 31.4 | 4.99 | 22.8 | 17.1 | > 100 | 26.6 | > 100 |
| COc1cccc(-c2nc(-c3ccc(NS(=O)(=O)c4ccccc4)cc3)[nH]c2-c2ccnc(Br)c2)c1 | 1.56 | 3.44 | 2.64 | > 100 | 2.66 | 12.4 | 2.53 | 8.03 | 2.09 | 5.46 | 3.23 | 45.8 | 1.87 | 3.49 | 2.58 | 8.56 | 1.71 | 5.17 | 4.03 | > 100 |
| CCOC(=O)Oc1c(OC)cc(C(=O)c2ccc(OC)c(OC(=O)CCl)c2OC)cc1OC | 0.677 | > 100 | 0.88 | > 100 | 9.57 | 66.7 | 0.805 | 6.38 | 0.494 | 36.2 | 1.9 | > 100 | 0.475 | 14.9 | 2.67 | > 100 | 0.556 | > 100 | 0.75 | > 100 |
| C=C1C(=O)OC2C1C(OC(=O)/C(C)=C/C)CC(O)(CCl)C1C(OC(C)=O)C=C(C)C21O (stereo unspecified) |  | 20.7 |  | 19.8 |  | 24.3 |  | 41 |  | 20.8 |  | 38.1 |  | 34.4 |  | 29.3 |  | > 100 |  | > 58.9 |
| COc1cc2c3c(n(CCCO)c(=O)c2cc1OC)-c1cc2c(cc1C3=O)OCO2 | 2.89 | 22.9 | 2.94 | > 100 | 26.4 | 98 |  | 6.79 | 2.96 | > 38.6 | 23.4 | > 76.6 | 11.3 | > 52.9 | 2.45 | 25.3 | 52 | > 100 | 14.5 | > 100 |
| O=c1oc2ccccc2cc1-c1ccc([N+](=O)[O-])cc1 |  | > 100 |  | > 100 |  | > 100 |  | > 100 |  | > 100 |  | > 100 |  | > 100 |  | > 100 |  | > 100 |  | > 75.6 |
| COC(=O)c1ccc(-c2nc3cc(F)c(F)cc3nc2C#N)cc1 | 0.948 | 1.79 | 8.86 | 23.6 | 13 | 33.2 | 10.7 | 18.7 | 7.84 | 14.6 | 1.57 | 6.87 | 6.87 | 13.7 | 2.66 | 5.83 | 1.57 | 4.79 | 9.35 | 17 |
